Measurements published in patent publication US7439063B2, “Neuroprotective synergy of erythropoietin and insulin-like growth factors” (Burnham Institute for Medical Research, priority 2002, dated 2008).
Like-named read-outs stand apart in the source and are kept apart here.

Assays:
erythropoietin receptor = biological target: T1, erythropoietin receptor (Homo sapiens, UniProt P19235); conditions: known erythropoietin mimetic peptides; cited from earlier work
T1 sequence (P19235 25-249 limits assumed): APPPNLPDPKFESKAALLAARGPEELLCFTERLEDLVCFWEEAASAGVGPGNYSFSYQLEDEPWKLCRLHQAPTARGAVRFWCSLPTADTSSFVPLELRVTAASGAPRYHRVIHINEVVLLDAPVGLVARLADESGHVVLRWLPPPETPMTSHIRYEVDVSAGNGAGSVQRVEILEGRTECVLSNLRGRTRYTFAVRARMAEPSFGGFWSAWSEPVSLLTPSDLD

[1] = system: rat primary cerebrocortical cultures
Protocol: The neuroprotective effects of concurrent EPO and IGF-I administration were compared to individual treatment with EPO or IGF-I in rat primary cerebrocortical cultures.
Neuronal apoptosis was quantified by double labeling for TUNEL reactivity, which in conjunction with condensed morphology is indicative of apoptosis, and the neuron-specific protein microtubule associated protein-2 (MAP2) 16 hours after NMDA insult.
For these experiments, mixed neuronal/glial cerebrocortical cultures were prepared as described previously (Bonfoco et al., supra, 1995); Lei et al., Neuron 8:1087-1099 (1992); and Lipton et al., Nature 364:626-632 (1993)). In brief, cortical tissue from embryonic day 16 Sprague-Dawley rats was dissociated in 0.5% trypsin and plated on poly-L-lysine coated glass coverslips at a density of 10^5 cells per 35 mm culture dish in serum-containing medium. Prior to experimental use, cerebrocortical neurons were kept at 37° C. and 5% CO2 for at least 17 days to permit full expression of NMDA receptors (Lei et al., supra, 1992; and Lipton et al., supra, 1993).
EPO and IGF-I incubations were performed essentially as follows. Human recombinant EPO purchased from Amgen (Epoietin alfa, 2000 IU/ml) was diluted in cell culture medium to a final concentration of 5-10 U/ml. Insulin-like growth factor-I (IGF-I) (Calbiochem; La Jolla, Calif.) was diluted in cell culture medium to a final concentration of 50-100 ng/ml.
NMDA incubations were performed as follows. Cerebrocortical cultures were exposed to 200 μM NMDA in nominally Mg^2+-free Earle's Balanced Salt Solution (EBSS), containing 1.8 mM CaCl2 and 5 μM glycine for 20 minutes. After NMDA exposure, cultures were washed with EBSS and then placed in conditioned tissue culture medium filtered with a […] Acrodisk filter (Perkin-Elmer; Wellesley, Mass.) to remove activated microglia. Where indicated, EPO, IGF-I or both EPO and IGF-I were added to the conditioned media.
Detection of apoptotic neurons was performed essentially as follows. After experimental incubation, cerebrocortical cultures were fixed in PBS (150 mM NaCl, 1.7 mM monobasic sodium phosphate, 9.1 mM dibasic sodium phosphate) with 4% paraformaldehyde, and permeabilized in PBS containing 1% Tween-20. Apoptotic cells were identified by condensed morphology in conjunction with TUNEL using the Apoptosis Detection System (Promega; Madison, Wis.). […]
For PI3-kinase inhibition, cultures were prepared and incubated with NMDA alone, or with EPO or IGF-I individually, or EPO in combination with IGF-I, as described above. […] Neuronal apoptosis was assessed 16 hours after NMDA application by determining the percentage of MAP2-positive cells that were also TUNEL positive, as described above.

Akt = Akt phosphorylation on serine-473 (immunoblot); type: cell-based, rat
[2] = system: active caspase-3/XIAP complex; assay: XIAP associated with active caspase-3 (immunoprecipitation, densitometry); type: cell-based, rat; conditions: NMDA exposure alone
Protocol: In mixed cerebrocortical cultures, EPO is known to induce expression of XIAP and c-IAP, two related factors capable of inhibiting caspase-3 proteolytic activity (Digicaylioglu and Lipton, supra, 2001; and Holcik and Korneluk, Nat. Rev. Mol. Cell. Biol. 2:550-556 (2001)). Here, cerebrocortical cultures were analyzed for the effect of combined EPO and IGF-I treatment on association of XIAP and active caspase-3. Cultures were incubated with EPO, IGF-I and NMDA and, after immunoprecipitation of the active form of caspase-3, immunoprecipitates were probed for the presence of XIAP using western blotting.
To perform these experiments, cerebrocortical cultures were exposed to NMDA, or EPO and IGF-I, or concurrently exposed to NMDA and EPO/IGF-I as described above. Immunoprecipitation of culture lysates was performed using precleared whole-cell lysates, incubated with a 1:100 dilution of antibody specifically recognizing the cleaved form of caspase-3 (Cell Signaling Technologies) for one hour at room temperature, followed by addition of protein A/G-Sepharose beads and immunoprecipitation as described above. The immunoprecipitates were separated by electrophoresis and transferred to a nitrocellulose membrane, which was blotted with a 1:200 dilution of anti-XIAP antibody (Trevigen; Gaithersburg, Md.).

caspase-3 = assay: Caspase-3 (DEVD) cleavage assay in culture lysates; type: cell-based, rat; conditions: lysates 16 hours after NMDA exposure; simultaneous application or 3 hour preincubation
Protocol: To study the effect of combined EPO/IGF-I treatment on proteolytic activity of caspase-3, protein lysates were prepared from cerebrocortical cultures 16 hours after NMDA exposure, and caspase-3 activity was assayed using the fluorescent caspase-3 substrate, DEVD-7-amino-4-trifluoromethyl-coumarin (DEVD-AFC).
Caspase-3 (DEVD) cleavage assays were performed as described previously. Briefly, cerebrocortical cultures were lysed in cold buffer containing 10% sucrose, 0.1% CHAPS, 100 mM HEPES (pH 7.5), and 10 mM dithiothreitol (DTT). Cytoplasmic protein extracts (200 μg) were incubated for 30 minutes at 37° C. with 80 μM caspase-3 peptide substrate DEVD-AFC (Enzyme Systems Products; Livermore, Calif.). Free fluorescent AFC released by caspase-3 activity was measured on a FluoroMax2 fluorometer at 400 nm excitation and 505 nm emission.

cerebrocortical neurons = conditions: 6, 12, 16 and 48 hours after NMDA exposure; mixed neuronal-glial cultures
Protocol: The total number of viable MAP2 positive cells was assayed to avoid the effects of secondary necrosis seen at longer survival times (Bonfoco et al., supra, 1995).
Neuronal survival was assayed as the total number of MAP2 positive cells to avoid the confounding effects of secondary necrosis, which can occur at later time points and obfuscate the number of apoptotic cells (Bonfoco et al., supra, 1995).

[3] = brain delivery of intranasally applied radiolabeled EPO (autoradiography); type: in vivo
Description: As disclosed herein, EPO or an active fragment or analog thereof can cross the blood-brain barrier following intranasal administration, whereby unwanted systemic effects such as increased hematocrit can be avoided.

[4] = system: p85 subunit of PI3-kinase; assay: phosphorylation of the p85 subunit of PI3-kinase (immunoblot); type: cell-based, rat; conditions: IGF-I: maximal phosphorylation; EPO: phosphorylation observed; treated 10, 20 or 30 minutes
Protocol: PI3-kinase is activated by phosphorylation of a p85 regulatory subunit, which leads to release of the catalytic subunit (Pleiman et al., Science 263:1609-1612 (1994)). To determine if EPO or IGF-I induces phosphorylation of the p85 subunit of PI3-kinase, rat cerebrocortical cultures were treated with EPO or IGF-I for 10, 20 or 30 minutes, and protein lysates from these cultures analyzed by immunoblotting for the presence of phospho-p85. As shown in FIG. 5B (upper and lower panels), both factors induced p85 phosphorylation in a time-dependent manner. […] Equal protein loading was confirmed by analyzing the amounts of total p85 with a second antibody.
Preparation of total cell extracts for immunoblotting or immunoprecipitation was performed essentially as follows. Cultures were washed briefly in cold PBS. After addition of ice cold lysis buffer (50 mM Tris-Cl, 150 mM NaCl, 1.1 mM PMSF, 10 μg/ml Aprotinin, 1% Triton X-100, pH 8.0, 2 mM Ortho-Vanadate, 0.1% deoxycholate), cells were scraped off the culture dishes. Lysates were transferred to a microcentrifuge tube, vortexed for 15 seconds at 4° C., and cleared by centrifugation for 20 minutes at 14,000×g at […]. Protein concentrations were determined using a BCAProtein assay kit (Pierce; Rockford, Ill.).
Immunoblotting was performed as follows. […]

[5] = naturally occurring peptide; cited from earlier work
[6] = system: focal cerebral ischemic damage; conditions: administered intranasally; cited from earlier work

In the case of VGNYMCHFGPITWVCRPGGG [EMP4], the IC50 (erythropoietin receptor) is listed as 500 nM.

With `CN[C@H](CC(=O)O)C(=O)O` [NMDA, N-methyl-D-aspartate] the “apoptotic appearance and TUNEL reactivity, % of MAP2-labeled neurons” value ([1]; 200 μM NMDA for 20 minutes alone, 16 hours after NMDA insult) was 76+7%, the “constitutive levels of Akt phosphorylation” value (Akt; 20-minute exposure to NMDA) was “reduced constitutive levels of Akt phosphorylation” and the “amount of XIAP associated with active caspase-3, NMDA alone” value [2] was “modest increase”. For the same molecule, the “caspase-3-like activity (DEVD cleavage)” value (caspase-3) was “increased DEVD cleavage” and the “number of surviving neurons in mixed cultures” value (cerebrocortical neurons) was “dramatic decrease in the number of surviving neurons”.

With “radiolabeled EPO: intranasally applied radiolabeled erythropoietin” the “distribution after intranasal application” value [3] was “migrated into olfactory tissue and was observed in the rostral migratory stream” and the “distribution after intranasal application” value ([3]; listed as radiolabeled erythropoietin) was “accumulated in brain tissue”.

For GGVYACRMGPITWVCSPLGC [EMP3], the IC50 (erythropoietin receptor) is given as 300 nM.

In the case of GGDYHCRMGPLTWVCKPLGG [EMP2], the IC50 (erythropoietin receptor) is given as 200 nM.

In the case of “IGF-I: Insulin-like growth factor-I (Calbiochem), also known as somatomedin C, a hormone of 70 amino acids”, the “cell death, treatment at the time of NMDA insult” value ([1]; factor applied individually at the time of NMDA insult) is reported as “did not significantly reduce cell death”, the “neuronal viability in control incubations” value ([1]; in the absence of NMDA exposure) is reported as “did not affect neuronal viability” and the “neuronal apoptosis after preincubation” value ([1]; preincubation for three hours before NMDA, EPO 10 U/ml, IGF-I 100 ng/ml) is reported as “significantly attenuated neuronal apoptosis”. The “time to phosphorylation of p85 subunit of PI3-kinase” value [4] was 10 min, the “phospho-serine-473 Akt” value (Akt; three hour incubation) was “moderate Akt activation” and the pI [5] was 8.4. For the same molecule, the “protection against focal cerebral ischemic damage” value [6] was “can protect against focal cerebral ischemic damage”.

For “IGF-II: naturally occurring, relatively neutral peptide with 60% amino acid homology to native IGF-I”, the pI [5] is given as 6.4.

For GGCRIGPITWVCGG [AF11154], the IC50 (erythropoietin receptor) is given as 10000 nM.

For GGLYLCRFGPVTWDCGYKGG [EMP5], the IC50 (erythropoietin receptor) is given as 1000 nM.

For GGTYSCHFGPLTWVCKPQGO [EMP1], the IC50 (erythropoietin receptor) is given as 200 nM.
